# pEC50: −log10 of the molar value. *: point of attachment. C12 diacid = O=C(O)CCCCCCCCCCC(=O)*; Lauroyl = CCCCCCCCCCCC(=O)*
# What was measured:
# [1] = Hydrophobicity: retention time during reverse phase HPLC; assay type: physicochemical; conditions: Acquity CSH C18; pH 7.2 buffer/CH3CN gradient; 40° C.
# Source text: The retention time (RT) during reverse phase HPLC was taken as a measure of hydrophobicity of an N-terminally modified peptide or oligopeptide of the invention, where the connection is: The longer the RT, the more hydrophobic N-terminally modified peptide or oligopeptide. The following running conditions were applied during HPLC analysis:
# Buffer B: 70% (v/v) aq. CH3CN
# Chymotrypsin = assay: Inhibition of enzymatic degradation of a model GLP-1 (FRET substrate) by chymotrypsin; assay type: biochemical; conditions: for pEC50: read-out: EC50 Chymotrypsin (0.001 mg/ml), 0.001 mg/ml chymotrypsin, 37° C., ± standard error if at least 3 measurements
# Outline: (§1)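 Initial-rate slopes of fluorescence rise (320 nm ex, 405 nm em), fitted over the linear early phase and averaged from duplicates, were plotted against inhibitor concentration and fitted logistically to give EC50. Reactions ran at 37° C in Dulbecco's PBS, with MCA/DNP GLP-1 FRET substrate added as 10 μl of 100 μM stock.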
# Trypsin = assay: Inhibition of enzymatic degradation of a model GLP-1 (FRET substrate) by trypsin; assay type: biochemical; conditions: for pEC50: read-out: EC50 Trypsin (0.001 mg/ml), 0.001 mg/ml trypsin, 37° C.
# Outline: as §1
# [2] = compound 0.1 mM, buffer containing 8% DMSO
Substance,RT (retention time during reverse phase HPLC as a measure of hydrophobicity) [1],pEC50 (Chymotrypsin),pEC50 (Trypsin),Slope of the initial increase in fluorescence obtained during incubation with 0.001 mg/ml Chymotrypsin (Chymotrypsin; [2]),Slope of the initial increase in fluorescence obtained during incubation with 0.001 mg/ml Trypsin (Trypsin; [2]),Slope of the initial increase in fluorescence obtained during incubation with 0.001 mg/ml Chymotrypsin (Chymotrypsin; compound 1 mM),Slope of the initial increase in fluorescence obtained during incubation with 0.001 mg/ml Trypsin (Trypsin; compound 1 mM)
N-dodecanoyl-Ala-Arg-Pro-Tyr-OH (Lauroyl-ARPY-OH; SMILES CCCCCCCCCCCC(=O)N[C@@H](C)C(=O)N[C@@H](CCCNC(=N)N)C(=O)N1CCC[C@H]1C(=O)N[C@@H](Cc1ccc(O)cc1)C(=O)O) [Example 73],5.34 min,,,0.08,1.67,,
N-tetradecanoyl-γGlu-OEG-Ala-Ala-Pro-Phe-OH [Example 126],5.02 min,3.99,< 3.30,,,0.05,0.30
N-dodecanoyl-Ala-Ala-Gly-Tyr-OH (Lauroyl-AAGY-OH; SMILES CCCCCCCCCCCC(=O)N[C@@H](C)C(=O)N[C@@H](C)C(=O)NCC(=O)N[C@@H](Cc1ccc(O)cc1)C(=O)O) [Example 63],5.46 min,,,1.89,1.90,,
N-dodecanoyl-OEG-OEG-DPhe-OH [Example 129],6.34 min,3.47,3.41,,,0.16,0.38
N-dodecanoyl-Ala-Ala-His-Tyr-OH (Lauroyl-AAHY-OH; SMILES CCCCCCCCCCCC(=O)N[C@@H](C)C(=O)N[C@@H](C)C(=O)N[C@@H](Cc1c[nH]cn1)C(=O)N[C@@H](Cc1ccc(O)cc1)C(=O)O) [Example 64],5.33 min,,,1.23,2.23,,
N-dodecanoyl-Ala-Ala-Val-Tyr-OH (Lauroyl-AAVY-OH; SMILES CCCCCCCCCCCC(=O)N[C@@H](C)C(=O)N[C@@H](C)C(=O)N[C@H](C(=O)N[C@@H](Cc1ccc(O)cc1)C(=O)O)C(C)C) [Example 72],6.44 min,,,1.18,1.52,,
N-dodecandioyl-Ala-Ala-Pro-Phe-OH ({C12 diacid}-AAPF-OH) [Example 15],3.13 min,,,,,2.07,4.17
N-dodecanoyl-OEG-OEG-DPhe-OEG-OH [Example 131],6.21 min,,,,,0.53,0.62
N-dodecanoyl-Gly-Pro-Tyr-OH [Example 118],5.35 min,,,1.94,1.84,,
N-dodecanoyl-Ala-Ile-Pro-Tyr-OH (Lauroyl-AIPY-OH; SMILES CCCCCCCCCCCC(=O)N[C@@H](C)C(=O)N[C@H](C(=O)N1CCC[C@H]1C(=O)N[C@@H](Cc1ccc(O)cc1)C(=O)O)[C@@H](C)CC) [Example 80],7.24 min,,,0.10,1.83,,
N-dodecanoyl-Ala-Ala-Asp-Tyr-OH (Lauroyl-AADY-OH; SMILES CCCCCCCCCCCC(=O)N[C@@H](C)C(=O)N[C@@H](C)C(=O)N[C@@H](CC(=O)O)C(=O)N[C@@H](Cc1ccc(O)cc1)C(=O)O) [Example 60],4.33 min,,,0.91,1.73,,
N-dodecanoyl-OEG-OEG-Phe-OH [Example 128],3.08 min,,,,,0.86,0.35
N-dodecanoyl-Thr-Pro-Tyr-OH [Example 108],5.72 min,,,0.59,1.92,,
N-dodecanoyl-Gln-Pro-Tyr-OH [Example 116],5.08 min,,,1.48,1.75,,
N-dodecanoyl-Asp-Pro-Tyr-OH [Example 115],3.91 min,,,2.04,1.73,,
N-dodecanoyl-Ser-Ala-Ala-Pro-Tyr-OH [Example 50],5.16 min,,,0.09,1.48,,

# Further lines, with some results ahead:
RT (retention time during reverse phase HPLC as a measure of hydrophobicity) [1],pEC50 (Chymotrypsin),pEC50 (Trypsin),Substance,Slope of the initial increase in fluorescence obtained during incubation with 0.001 mg/ml Chymotrypsin (Chymotrypsin; [2]),Slope of the initial increase in fluorescence obtained during incubation with 0.001 mg/ml Trypsin (Trypsin; [2]),Slope of the initial increase in fluorescence obtained during incubation with 0.001 mg/ml Chymotrypsin (Chymotrypsin; compound 1 mM),Slope of the initial increase in fluorescence obtained during incubation with 0.001 mg/ml Trypsin (Trypsin; compound 1 mM)
7.82 min,,,N-dodecanoyl-Ile-Pro-Tyr-OH [Example 120],0.17,1.08,,
7.87 min,,,N-dodecanoyl-Leu-Ala-Ala-Pro-Tyr-OH [Example 42],0.00,0.89,,
6.57 min,3.92,4.42,N-dodecanoyl-Ala-Ala-Ala-Ala-Pro-Phe-OH [Example 19],,,,
3.91 min,,,N-dodecanoyl-Glu-Pro-Tyr-OH [Example 117],1.82,1.66,,
7.08 min,,,N-dodecanoyl-Val-Ala-Ala-Pro-Tyr-OH [Example 54],0.95,1.95,,
4.82 min,,,N-dodecanoyl-Gln-Ala-Ala-Pro-Tyr-OH [Example 102],0.14,1.66,,
8.73 min,3.97,4.89,N-tetradecanoyl-βAla-βAla-Pro-Phe-OH [Example 136],,,,
3.83 min,,,N-dodecanoyl-Glu-Ala-Ala-Pro-Tyr-OH [Example 104],0.16,1.63,,

# Source: US20150038435A1, “N-TERMINALLY MODIFIED OLIGOPEPTIDES AND USES THEREOF” (Novo Nordisk A/S, priority 2012, published 2015)
